Entries after “also recorded” stand apart in the source; their conditions may differ. Read-outs that look alike come from different tables or passages of the source.
Key:
[1] = system: hrtAB promoter (HssRS activation; CgoX activation); test: XylE colorimetric reporter assay (phrt.xylE), activation of HssRS / hrtAB expression; assay type: cell-based, Staphylococcus aureus strain Newman; details: for XylE activity in comparison to '8882 at 10 μM: six-hour exposure (FIG. 2A); for Specifc Activity (nMol/min*mg), data collected at 10 uM: footnote a: data collected at 10 uM
Procedure: (§1) To maximize the production of coproporphyrin III and thereby increase blue-light mediated killing of S. aureus, synthesized analogs of VU0038882 were tested. To determine the relative efficacy of each analog, a Newman strain of S. aureus, transformed with the phrt.xylE (11) reporter vector was used. This reporter allows for colorimetric assessment of intracellular heme production. To perform the assay, each individual analog was added to 3 mL of TSB+10 μg/mL chloramphenicol to reach a concentration of 30 μM, and then 700 μL of this newly made 30 μM solution was added to 1.3 mL of remaining TSB+10 μg/mL chloramphenicol media to create the 10 μM concentration. Either 10 μM or 30 μM concentrations of compounds in medium were then aliquoted into three 0.5 mL replicate tubes. Three separate 16- to 18-hour overnight subcultures from isolated colonies were back-diluted 1:100 into the tubes creating three biological replicates and were subcultured for 6 hours at 37° C. and 180 rpm. After incubation, the cells were pelleted at 16,400 g for 5 minutes and the supernatant aspirated before washing with 0.5 mL of 20 mM potassium phosphate wash buffer. After pelleting the cells again at 16,400 g for 5 minutes the wash buffer was aspirated, and the pellets were stored at −80° C. until further use.
When the cells were ready to be lysed and data collected, samples were removed from the −80° C. freezer, allowed to thaw, and resuspended in 150 μL of lysis buffer (100 mM potassium phosphate pH=8.0, 10% v/v acetone, 20 μg/mL lysostaphin) before incubation in a 37° C. bead bath for 20 minutes and then cooled for 5 minutes on ice. The samples were then centrifuged at 16,400 g and 4° C. for 30 minutes to separate the pellet from the lysate, which was then placed into a 96-well microtiter plate and kept on ice. The lysate from each sample was pipetted into 20 μL aliquots on a round-bottom or flat-bottom 96-well plate on ice. The round bottom plate was labeled for bicinchoninic acid assay (BCA) protein content analysis, and 10 μL of BCA standards was added to extra wells on the plate. Protein quantification was performed using a Pierce BCA Protein Assay Kit as per the manufacturer's instructions. While the BCA plate was in the incubator, the flat-bottom plate was prepared by thawing 1 M catechol on ice and making 100 mM potassium phosphate (pH=8.0) assay buffer. After preparing a kinetic read at 375 nm for 10 minutes with a minimal interval between reads, the catechol was diluted 1:1,000 into the assay buffer and quickly dispensed into a sterile basin, then 200 μL of the solution was pipetted into each well using a multichannel pipette. All data were exported into Excel software (Microsoft) and analyzed for specific activity of each compound and activity relative to VU0038882 controls.
After 219 analogs had been screened, the compounds with the best percent VU0038882 activity were tested again following the same protocol, but with twelve replicates per concentration with data expressed as averages ±the standard deviation (SD). Additionally, the top-performing compounds were tested using the XylE protocol with a concentration gradient to determine their half maximal effective concentration (EC50) values.
Photosensitizer-conjugated antibodies expose bacteria to reactive oxygen species (ROS) externally, but this treatment can be paired with small molecule treatment to generate ROS internally via heme biosynthesis pathway intermediates. To discover new compounds capable of activating CgoX and/or displaying less toxicity to eukaryotic cells, a medicinal chemistry campaign was initatied based on systematic alternation of the '8882 structure. Each new analog was tested for the ability to activate HssRS using the previously described XylE colorimetric assay that employs a reporter construct in which the hrtAB promoter is fused to a xylE reporter gene. […]

S. aureus = test: Toxicity of analogs to bacteria in the XylE cultures; assay type: cell-based, Staphylococcus aureus; details: target dose of 30 μM
Procedure: as §1
The most consistent activity with non-furan-containing compounds was found with thiophene replacements.

[2] = system: S. aureus strain Newman wild-type (iron-starved); test: In vitro antimicrobial photodynamic therapy light killing assay; assay type: cell-based, Staphylococcus aureus; details: for Growth inhibition / reduction of CFUs/mL by small molecule plus IR700DX-conjugated anti-IsdA and anti-IsdB mAb mixture: combination with mAb mixture, 63 J/cm^2 690 nm and 50 J/cm^2 395 nm light (FIG. 3A)
Procedure: Iron-chelated bacterial cultures of the indicated strains were prepared. Antibodies of interest were added to 5 mL of iron-chelated TSB at a concentration of 2.5 ug/mL for subculture. These conditions were then separated into four-1 mL aliquots, which was comprised of replicates for both the experimental and control strains. The iron-depleted bacterial strains Newman wildtype and Newman ΔisdABΔspa (40) were then normalized to an OD600 of 1.0 and back diluted 1:100 into each condition from the overnight cultures. These subcultures were then incubated at 37° C. and 180 rpm for 30 minutes, and the bacteria were pelleted via centrifugation for 5 minutes at 16,400 g and 4° C. The pellet was washed twice in 1 mL of cold PBS before being finally resuspended in 1 mL of cold PBS.
During the subculture incubation, a measurement was taken of the power of each light to calculate the time needed to achieve a light dose of 63 J/cm^2 for the 690 nm NIR light (M680L4; Thorlabs) and 50 J/cm^2 for the 395 nm blue-LED (M395L4; Thorlabs) mounted 5 cm above the measurement probe. This measurement was taken using a photodiode and power meter (919P-003-10, 843-R; Newport) with a cutout 3×3 portion of a black 384-well microtiter plate positioned centrally over the measurement probe. The outer wells were covered with aluminum foil to ensure that the measurement taken by the probe was strictly limited to the light that entered the 0.1225 cm^2 area of the well. This approach allowed for the irradiance of the light to be calculated according to (readout (mW)/0.1225 cm^2). This value was then divided into the total light dose for each light and divided by 60 to determine the light dose in minutes. The outputs of the 690 nm and 395 nm LEDs were spatially combined using a long-pass dichroic filter (FF470-Dio; Semrock Inc.) for all experimental conditions where light was present.
The spatial intensity profile of the light output is approximately Gaussian in shape in both directions, so 25 μL of each sample was aliquoted into a 3×3 square on a black 384-well microtiter plate with the center well remaining empty, since it would receive a stronger dose than the surrounding wells. The samples were organized such that the conditions alternated wild-type and knockout in a clockwise fashion, beginning with the lower left corner well. In addition, the center well was centered under the light to equate the radial diminishment of light dose amongst the samples.
To ensure the compounds' efficacy in the full therapeutic regimen and reduce potential unknown variables, each of the compounds was tested with 395 nm or 690 nm wavelengths and with Newman WT or Newman ΔisdAB Δspa. […]

[3] = system: S. aureus USA300 luxBADCE; test: In vivo murine superficial skin (ear) infection model with PDT, bioluminescence imaging; design: species or system BALB/cJ mice; details: for Bacterial growth / luminescence in infected mouse ear compared to untreated animals: '8882 plus conjugated antibodies (i.p. and topical) plus 690 nm and 395 nm light, two-day regimen
Procedure: All mice were maintained in compliance with Vanderbilt's Institutional Animal Care and Use Committee regulations (protocol M1800026). To create a superficial skin wound a similar model of infection was used, as previously described (44), with modifications to relocate the area of infection to the inner epithelial layer of each ear. Eight- to 10-week-old female BALB/cJ mice were used for the S. aureus infections. Twenty-four hours prior to infection the mice were injected intraperitoneally with 20 μg/mL of both STAU-149 (anti-IsdA) and STAU-281 (anti-IsdB) in PBS. Overnight cultures of S. aureus USA300 with a chromosomally-integrated luxBADCE cassette (45) were subcultured 1:50 into TSB containing 1 mM 2,2-dipyridyl. Cultures were grown for 3.5 h to reach exponential phase of growth. Cell pellets were washed twice with ice-cold PBS with the original culture volume, centrifuged, and resuspended in 250 μL of ice-cold PBS. Approximately 5×10^7 log-phase CFUs were inoculated in 5 μL of PBS directly onto the surface of the wound present on each ear, and each mouse was again injected intraperitoneally with antibodies. Mice were placed into new sterile cages in groups of three in accordance with their experimental condition. Four hours post-infection, the mice were visualized using the IVIS spectrum (Perkin Elmer) in vivo bioluminescence imaging system, with data being collected with a 5-minute exposure time. Each mouse was then transferred to a nose cone under continuous isoflurane anesthesia and, 30 minutes prior to light exposure, the ears were exposed to 10 ∥L of the 450 ∥M '8882 and 20 μg/mL mAb cocktail in PBS containing 10% DMSO. Control mice were left untreated. The right ventrodorsal ear of each mouse was exposed to the 395-nm LED for 20.6-23.1 minutes delivering a total energy dose of 50 J/cm^2. […]
The left ventrodorsal ear of each mouse was not exposed to light during treatment. […] Luminescence was quantified for individual ears using ImageJ (FIJI) (46-48). […] Post-treatment images were again collected at 5-minute exposure times using the IVIS system and analyzed using ImageJ (FIJI). […]

[4] = Staphylococcus aureus, NEWMAN, read-out: logEC50 (converted)

## 2-(5-(5-(Hydroxymethyl)thiophen-2-yl)-1H-pyrazol-3-yl)naphthalen-1-ol [′9952]
[1]
  XylE activity in comparison to '8882 at 10 μM: highest activity at 10 μM observed to date
[1]; XylE protocol with a concentration gradient, Newman phrt.xylE
  logEC50: −5.182 ± 0.065
[1]; XylE protocol with a concentration gradient, Newman phrt.xylE, read-out: EC50
  EC50: 6.58 µM
[1]; 6 h subculture
  Specifc Activity (nMol/min*mg), data collected at 10 uM: 18.10 ± 1.80^a nMol/min*mg
S. aureus
  Toxicity to bacteria (S. aureus): overtly toxic to bacteria; also recorded: exhibiting toxicity to S. aureus

## Oc1c(-c2cc(-c3ccco3)[nH]n2)ccc2ccccc12 [′8882, 2-(5-(Furan-2-yl)-1H-pyrazol-3-yl)naphthalen-1-ol]
[1]; 30 μM compound, 6 h subculture, XylE activity normalized to protein
  Specifc Activity @ 30 μM: 30.04 ± 10.24 nmol/min/mg
[1]; Staphylococcus aureus, NEWMAN
  EC50: 10.5 µM
[1]; [4]
  EC50: 10.5 µM
[2]; '8882 plus IR700DX-conjugated IsdA and IsdB antibodies plus 690 nm and 395 nm light
  Decrease of S. aureus viability compared with untreated cells, combined treatment: 10,000 fold
[2]; alone, with light
  Efficacy against S. aureus in PDT, small molecule alone: efficacious against S. aureus
[2]
  Growth inhibition / reduction of CFUs/mL by small molecule plus IR700DX-conjugated anti-IsdA and anti-IsdB mAb mixture: significant growth inhibition of S. aureus
[2]; listed as VU0038882
  Growth inhibition / reduction of CFUs/mL by small molecule plus IR700DX-conjugated anti-IsdA and anti-IsdB mAb mixture: greater reduction of CFUs/mL in vitro than either condition alone
[3]
  Bacterial growth / luminescence in infected mouse ear compared to untreated animals: significantly less bacterial growth
[3]; listed as VU00038882
  Bacterial growth / luminescence in infected mouse ear compared to untreated animals: significant reduction in bacterial luminescence
[3]; no light exposure
  Bacterial burden in infected mouse ear, antibodies plus '8882 without light: a reduction in bacterial burden but did not reach the same extent as the combinatorial treatment

## Oc1c(-c2cc(-c3ccoc3)[nH]n2)ccc2ccccc12 [′9133, 2-(5-(Furan-3-yl)-1H-pyrazol-3-yl)naphthalen-1-ol]
[1]
  XylE activity in comparison to '8882 at 10 μM: outperformed '8882
[1]; Staphylococcus aureus, NEWMAN
  EC50: 8.17 µM
[1]; [4]
  EC50: 8.17 µM
[1]; 6 h subculture
  Specifc Activity (nMol/min*mg), data collected at 10 uM: 8.346 ± 1.304^a nMol/min*mg
S. aureus
  Toxicity to bacteria (S. aureus): overtly toxic to bacteria; also recorded: exhibiting toxicity to S. aureus

Source: patent US20240131356A1, “COMBINATION OF INTRACELLULAR AND EXTRACELLULAR PHOTOSENSITIZERS FOR TREATMENT OF BACTERIAL INFECTION” (priority 2021, published 2024)
